Results reported in patent US4207330A, “Method for treating hyperglycemia in mammals using arylamino benzoic acids” (The Dow Chemical Company, priority 1979, dated 1980).
Read-outs that look alike come from different tables or passages of the source.

Tested on: serum glucose
Experiment: Hypoglycemic activity in alanine-induced mice (percent lowering of serum glucose; ED50)
Type: in vivo, male Swiss-Webster mice
Details: for inhibition in vivo at 60 mg/kg / ED50: Mus musculus, ip, 1 h; for inhibition in vivo at 60 mg/kg: 60 mg/kg intraperitoneal, 15 min before 10 mmol/kg L-alanine i.p., serum glucose 60 min after compound, 100% = lowering from alanine-induced level to fasted control level, read-out: % Lowering Blood Sugar; for ED50: read-out: ED50 (amount required to obtain a 50% reduction in serum glucose as compared to the control animals)
Description: Alanine is the most glucogenic of the amino acids and also stimulates gluconeogensis in normal animals. Animals suffering from diabetes show an exaggerated hyperglycemic response to a protein or amino acid meal, therefore the hyperglycemic state induced by alanine closely parallels the response of a diabetic mammal.
Fifteen minutes later the same mice were injected intrapertioneally with 10 m moles/kg body weight of L-alanine. Sixty minutes after injection of the active compound, the animals were sacrificed and their sera were analyzed for glucose. The control consisted of both fasted mice and mice injected with alanine. The results are expressed as percent lowering of serum glucose from the alanine induced hyperglycemic level to the fasted control glucose level, i.e. lowering to the fasting glucose level is 100% lowering.
The effective dose (ED50) of several of the subject compounds were determined.
*effective dose represents the amount of the active ingredient required t
obtain a 50% reduction in serum glucose as compared to the control

[1] = 50% reduction in serum glucose vs control animals

| Compound | inhibition in vivo at 60 mg/kg [%] | further results |
| --- | --- | --- |
| O=C(O)c1ccc(NCc2ccc(C(F)(F)F)cc2)cc1 [Example 11, 4-(((4-(trifluoromethyl)phenyl)methyl)amino)benzoic] | 106 |  |
| Cc1ccc(CNc2ccc(C(=O)O)cc2)cc1 [Example 4, 4-(((4-methylphenyl)methyl)amino)benzoic acid] | 144 | ED50 [1]: 15 mg/kg |
| O=C(O)c1ccc(NCc2ccc(Br)s2)cc1 [Example 15, 4-(((5-bromo-2-thienyl)methyl)amino)benzoic acid] | 210 | ED50 [1]: 4.6 mg/kg; hypoglycemic activity at low dosage (in words) (mice, dosages as low as 7.5 mg per kg of body weight): significant hypoglycemic activity; hypoglycemic activity (in words) (mice, compounds tested): highest activity as a hypoglycemic agent of the compounds tested |
| O=C(O)c1ccc(NCc2cccs2)cc1 [Example 8, 4-((2-thienylmethyl)amino)benzoic acid] | 51 |  |
| CCOC(=O)c1ccc(NCc2cccs2)cc1 [Example 7, 4-((2-thienylmethyl)amino)benzoic acid ethyl ester] | 78 |  |
| O=C(O)c1ccc(NCc2ccc(Cl)cc2)cc1.[Na] [Example 12, 4-(((4-chlorophenyl)methyl)amino)benzoic acid sodium] |  | ED50: 6 mg/kg |
| CCc1ccc(CNc2ccc(C(=O)O)cc2)cc1 [Example 5, 4-(((4-ethylphenyl)methyl)amino)benzoic acid] | 96 | ED50 [1]: 15 mg/kg |
| O=C(O)c1ccc(NCc2cccc(F)c2)cc1 [Example 13, 4-(((3-fluorophenyl)methyl)amino)benzoic acid] | 52 |  |
| O=C(O)c1ccc(NCc2cc(Cl)c(Cl)s2)cc1 [Example 14, 4-(((4,5-dichloro-2-thienyl)methyl)amino)benzoic acid] | 83 |  |
| O=C(O)c1ccc(NCCCc2ccccc2)cc1 [Example 10, 4-((3-phenylpropyl)amino)benzoic acid] | 99 |  |
| O=C(O)c1ccc(Nc2ccccc2)cc1 [Example 1, p-anilinobenzoic acid] | 88 |  |
| O=C(O)c1ccc(NCc2ccc(Cl)cc2)cc1 [Example 3, 4-(((4-chlorophenyl)methyl)amino)benzoic acid] | 111 | ED50 [1]: 11 mg/kg |
| CC(C)c1ccc(CNc2ccc(C(=O)O)cc2)cc1 [Example 2, 4-(((4-(1-methylethyl)phenyl)methyl)amino)benzoic acid] | 78 |  |
| O=C(O)c1ccc(NCc2cccc(Cl)c2)cc1 [Example 9, 4-(((3-chlorophenyl)methyl)amino)benzoic acid] | 64 |  |
| O=C(O)c1ccc(NCc2ccc(F)cc2)cc1 [Example 6, 4-(((4-fluorophenyl)methyl)amino)benzoic acid] | 110 |  |
